Square brackets hold non-standard residues; d marks the D form. Peptide text beside a SMILES is read from it.
Test system: rumen fluid which contained methane-producing bacteria and other rumen bacteria
Test: In vitro rumen fermentation test
Type: cell-based
Description: Rumen fluid which contained methane-producing bacteria and other rumen bacteria was produced in a fermentor which was set up and maintained to simulate the conditions of a rumen.
The test was carried out in a screw-cap tube which was sealed with a butyl rubber stopper. […] The air in the tube was replaced with a gas mixture of 97% nitrogen-3% hydrogen made free of oxygen by passage through a catalytic purifier. After incubation for 18 hours in a water bath shaker at 39° C., 0.5 ml. of the gas was removed through the stopper into the sample loop of a Fisher Gas Partitioner. The gas sample was partitioned, and the methane produced was compared to a standard gas mixture containing a known amount of methane. The incubation mixture was acidified with 4 ml. of 10% metaphosphoric acid and centrifuged. One μl. of the supernate was analyzed by gas-liquid chromatography. The volatile fatty acids were compared to a standard volatile fatty acid mixture containing known amounts of acetic, propionic, butyric and valeric acids. Appropriate controls were included.

O=C1N[C@H](Cc2ccccc2)C(=O)N2CCC[C@H]2C(=O)N[C@H](Cc2ccccc2)C(=O)N2CCC[C@H]2C(=O)N[C@H](Cc2ccccc2)C(=O)N2CCC[C@@H]12 [cyclo(Pro-D-Phe)3, Cyclo(Pro-D-Phe)3] (cyclo(P[dF]P[dF]P[dF]))
CH4 (methane) produced (250 μg./ml. of tested compound, incubation 18 hours at 39° C., gas partitioner): essentially eliminated | shift in VFA ratios (250 μg./ml. of tested compound, incubation 18 hours at 39° C., gas-liquid chromatography): significant shift in VFA ratios favoring the longer chain acids | Valeric acid, μmols (Treated 16 μg./ml., control 1.8): 4.5 μmols | Valeric acid, μmols % (Treated 16 μg./ml., control 3.0): 7.0 μmols % | Butyric acid, μmols (Treated 16 μg./ml., control 7.1): 15.3 μmols | Butyric acid, μmols % (Treated 16 μg./ml., control 10.5): 25.0 μmols % | Propionic acid, μmols (Treated 16 μg./ml., control 19.5): 23.0 μmols | Propionic acid, μmols % (Treated 16 μg./ml., control 28.5): 37.0 μmols % | Acetic acid, μmols (Treated 16 μg./ml., control 39.9): 18.8 μmols | Acetic acid, μmols % (Treated 16 μg./ml., control 58.5): 31.0 μmols % | Total volatile fatty acids, μmols (Treated 16 μg./ml., control 68.3): 61.6 μmols | production of VFAs (summary of tabulated data) (in vitro rumen fermentation): effective in increasing the production of the VFAs, propionic, butyric and valeric at the expense of methane and acetate
